Measured values published in patent US5981530A, “Piperazine derivative” (Senju Pharmaceutical Co., Ltd., priority 1995, dated 1999).
Counter-ions that a name gives are not always drawn.

Test system: rat palpebral PCA reaction
Assay: Passive cutaneous anaphylactic (PCA) reaction of the rat palpebra
Assay type: in vivo, rat (male Wistar)
Settings: 100 mg/5 ml/kg oral, 60 min prior to induction of PCA; for Degree of Inhibition (%): vs negative control
Protocol: Effect of the compound of the invention on the passive cutaneous anaphylactic (PCA) reaction of the rat palpebra
The effect of the compound of the invention on rat palpebral PCA reaction was investigated.
Male Wistar rats weighing about 120 g were purchased from Japan SLC for the experiment.
Using a microsyringe, 25 μl of antiserum (32-fold dilution) was injected beneath the palpebral conjunctiva of the right eye of rats under pentobarbital anesthesia. Forty-eight (48) hours after injection of antiserum, a mixture of 2% chicken egg albumin and 1% Evans blue, 5 ml/kg, was administered into the tail vein to induce PCA reaction. Thirty (30) minutes after induction, the rat was sacrificed and the stained portion of the palpebral conjunctiva of the right eye was excised. The dye was extracted into 5 ml of formamide, and the amount of the dye was determined at 625 nm.
The test substance, 100 mg/5 ml/kg, was administered orally 60 minutes prior to induction of PCA reaction.
As a negative control, 5 ml/kg of 0.5% carboxymethylcellulose (CMC) was administered orally. As a positive control, 100 mg/5 ml/kg of diphenhydramine hydrochloride, a commercial antihistaminic, was administered orally.

[1] = Table 1, mean ± SD (n = 5), negative control 0.662 ± 0.112, *1 p < 0.05, *2 p < 0.001
[2] = Table 1, n = 5, *1 p < 0.05, *2 p < 0.001

Structure (SMILES): O=C(O)c1ccccc1N1CCN(CC(O)COc2cccc3[nH]ccc23)CC1 (stereo not drawn) [Example 5, 3-[4-(2-Carboxyphenyl)piperazinyl]-1-(1H-indol-4-yloxy)propan-2-ol]
- Absorbance (extracted dye, 625 nm) (Table 2, mean ± SD (n = 6), negative control 0.486 ± 0.093, *1 p < 0.001): 0.276 ± 0.048
- Degree of Inhibition (%) (Table 2, n = 6, *1 p < 0.001): 43.2%

Structure (SMILES): COc1ccc(OCC(O)CN2CCN(c3ccccc3C(=O)O)CC2)c(C(C)(C)C)c1 (stereo not drawn) [Example 1, 3-[4-(2-Carboxyphenyl)piperazinyl]-1-(2-tert-butyl-4-methoxyphenoxy)propan-2-ol]
- Absorbance (extracted dye, 625 nm) [1]: 0.299 ± 0.056
- Degree of Inhibition (%) [2]: 54.8%

Structure (SMILES): CN(C)CCOC(c1ccccc1)c1ccccc1 [Diphenhydramine HCl, diphenhydramine hydrochloride, reference compound]
- Absorbance (extracted dye, 625 nm) [1]: 0.413 ± 0.126
- Degree of Inhibition (%) [2]: 37.6%
